In patent US4740504A, “Antihyperlipidemic amine boranes” (United States Borax & Chemical Corp., priority 1987, dated 1988):

Test system: male CF1 mice
Experiment: Hypolipidemic activity in CF1 mice, intraperitoneal dosing (serum cholesterol and triglyceride)
Type: in vivo
Details: Mus musculus, ip, 216 h; Table I; 20 mg./kg./day i.p., male CF1 mice, day 9; read-out: Serum Cholesterol Day 9
Protocol: For determining hypolipidemic activity, the compounds were suspended in an aqueous 1% carboxymethylcellulose solution and tested at 5 or 20 mg./kg./day administered intraperitoneally to male CF1 mice (~25 g.). On days 9 and 16 blood was collected by tail vein bleeding and the serum separated by centrifugation for three minutes. Serum cholesterol levels were determined by a modified Liebermann-Burchard reaction. Serum triglyceride levels were also determined at 16 days using a Fisher-Hycel Triglyceride Test Kit.
The test was repeated at a dosage of 8 mg./kg./day.
N-n-Octadecyl-N,N-dimethylamine borane was suspended in an aqueous 1% carboxymethylcellulose solution, homogenized, and administered to CF1 male mice (~25 g.) intraperitoneally for 16 days or Sprague Dawley male rats (~350 g.) orally by an intubation needle for 14 days. On days 9 and 14 or 16, blood was obtained by tail vein bleeding and the serum separated by centrifugation for 3 minutes. The serum cholesterol levels were determined by a modification of the Liebermann-Burchard reaction. Serum was also collected on day 14 or 16 and the triglyceride content was determined by a Fisher-Hycel Triglyceride Test Kit.

| SMILES | response vs control in vivo at 20 mg/kg |
| --- | --- |
| [BH3-][N+](C)(C)CCCCCC [X, N-- -n-hexyl-N,N--dimethylamine borane] | 66% |
| [BH3-][N+](C)(C)CCCCCCCC [II, N-octyl-N,N-dimethylamine borane] | 66% |
| [BH3-][N+](C)(C)CCCCCCCCCCCC [IX, N--dodecyl-N,N--dimethylamine borane] | 103% |
| [BH3-][N+](C)(C)CCCC [XI, N-- -n-butyl-N,N--dimethylamine borane] | 72% |
| [BH3-][N+](C)(C)CCCCCCCCCCCCCCCC [VIII, N--hexadecyl-N,N--dimethylamine borane] | 74% |
| [BH3-][N+](C)(C)CCCCCCCCCCCCC [V, N--tridecyl-N,N--dimethylamine borane] | 88% |

Same assay, conditions: Mus musculus, ip, 216 h; Table II; 8 mg./kg./day i.p., male CF1 mice, day 9; read-out: Serum Cholesterol Day 9

| SMILES | response vs control in vivo at 8 mg/kg |
| --- | --- |
| [BH3-][N+](C)(C)CCCCCC [X, N-- -n-hexyl-N,N--dimethylamine borane] | 73% |
| [BH3-][N+](C)(C)CCCCCCCC [II, N-octyl-N,N-dimethylamine borane] | 81% |
| [BH3-][N+](C)(C)CCCCCCCCCCCC [IX, N--dodecyl-N,N--dimethylamine borane] | 75% |
| [BH3-][N+](C)(C)CCCC [XI, N-- -n-butyl-N,N--dimethylamine borane] | 88% |
| [BH3-][N+](C)(C)CCCCCCCCCCCCCCCC [VIII, N--hexadecyl-N,N--dimethylamine borane] | 79% |
| [BH3-][N+](C)(C)CCCCCCCCCCCCC [V, N--tridecyl-N,N--dimethylamine borane] | 86% |

Same assay, conditions: Mus musculus, ip, 384 h; Table I; 20 mg./kg./day i.p., male CF1 mice, day 16; read-out: Serum Cholesterol Day 16

| SMILES | response vs control in vivo at 20 mg/kg |
| --- | --- |
| [BH3-][N+](C)(C)CCCCCC [X, N-- -n-hexyl-N,N--dimethylamine borane] | 48% |
| [BH3-][N+](C)(C)CCCCCCCC [II, N-octyl-N,N-dimethylamine borane] | 69% |
| [BH3-][N+](C)(C)CCCCCCCCCCCC [IX, N--dodecyl-N,N--dimethylamine borane] | 97% |
| [BH3-][N+](C)(C)CCCC [XI, N-- -n-butyl-N,N--dimethylamine borane] | 62% |
| [BH3-][N+](C)(C)CCCCCCCCCCCCCCCC [VIII, N--hexadecyl-N,N--dimethylamine borane] | 62% |
| [BH3-][N+](C)(C)CCCCCCCCCCCCC [V, N--tridecyl-N,N--dimethylamine borane] | 65% |

Same assay, conditions: Mus musculus, ip, 384 h; Table I; 20 mg./kg./day i.p., male CF1 mice, day 16; read-out: Serum Triglyceride Day 16

| SMILES | response vs control in vivo at 20 mg/kg |
| --- | --- |
| [BH3-][N+](C)(C)CCCCCC [X, N-- -n-hexyl-N,N--dimethylamine borane] | 71% |
| [BH3-][N+](C)(C)CCCCCCCC [II, N-octyl-N,N-dimethylamine borane] | 75% |
| [BH3-][N+](C)(C)CCCCCCCCCCCC [IX, N--dodecyl-N,N--dimethylamine borane] | 90% |
| [BH3-][N+](C)(C)CCCC [XI, N-- -n-butyl-N,N--dimethylamine borane] | 68% |
| [BH3-][N+](C)(C)CCCCCCCCCCCCCCCC [VIII, N--hexadecyl-N,N--dimethylamine borane] | 72% |
| [BH3-][N+](C)(C)CCCCCCCCCCCCC [V, N--tridecyl-N,N--dimethylamine borane] | 57% |

Same assay, conditions: Mus musculus, ip, 384 h; Table II; 8 mg./kg./day i.p., male CF1 mice, day 16; read-out: Serum Cholesterol Day 16

| SMILES | response vs control in vivo at 8 mg/kg |
| --- | --- |
| [BH3-][N+](C)(C)CCCCCC [X, N-- -n-hexyl-N,N--dimethylamine borane] | 69% |
| [BH3-][N+](C)(C)CCCCCCCC [II, N-octyl-N,N-dimethylamine borane] | 73% |
| [BH3-][N+](C)(C)CCCCCCCCCCCC [IX, N--dodecyl-N,N--dimethylamine borane] | 74% |
| [BH3-][N+](C)(C)CCCC [XI, N-- -n-butyl-N,N--dimethylamine borane] | 64% |
| [BH3-][N+](C)(C)CCCCCCCCCCCCCCCC [VIII, N--hexadecyl-N,N--dimethylamine borane] | 59% |
| [BH3-][N+](C)(C)CCCCCCCCCCCCC [V, N--tridecyl-N,N--dimethylamine borane] | 84% |

Same assay, conditions: Mus musculus, ip, 384 h; Table II; 8 mg./kg./day i.p., male CF1 mice, day 16; read-out: Serum Triglyceride Day 16

| SMILES | response vs control in vivo at 8 mg/kg |
| --- | --- |
| [BH3-][N+](C)(C)CCCCCC [X, N-- -n-hexyl-N,N--dimethylamine borane] | 80% |
| [BH3-][N+](C)(C)CCCCCCCC [II, N-octyl-N,N-dimethylamine borane] | 74% |
| [BH3-][N+](C)(C)CCCCCCCCCCCC [IX, N--dodecyl-N,N--dimethylamine borane] | 94% |
| [BH3-][N+](C)(C)CCCC [XI, N-- -n-butyl-N,N--dimethylamine borane] | 72% |
| [BH3-][N+](C)(C)CCCCCCCCCCCCCCCC [VIII, N--hexadecyl-N,N--dimethylamine borane] | 41% |
| [BH3-][N+](C)(C)CCCCCCCCCCCCC [V, N--tridecyl-N,N--dimethylamine borane] | 76% |

Test system: not given
Experiment: not given
Details: dose of 5-20 mg/kg/day; Hall et al., J. Pharm. Sci. 70, 339-341 (1981); cited from earlier work

| SMILES | hypolipidemic activity (printed: hyperlipidemic) |
| --- | --- |
| C[N+](C)(C)[BH2-]C(=O)O [trimethylamine carboxyborane] | potent hyperlipidemic activity |
